These results are taken from patent US12600726B2, “Antagonists of the muscarinic acetylcholine receptor M4” (Vanderbilt University, priority 2017, dated 2026).

The term IC50 denotes the concentration at which inhibition is half-maximal.

Experiment [1] addresses T1, Rat M4 (Rattus norvegicus, UniProt P08485).
T1 construct: expressed in transfected cells; host or cells: CHO-K1 (ATCC), stably expressing M4 and Gqi5
T1 sequence (P08485 1-478): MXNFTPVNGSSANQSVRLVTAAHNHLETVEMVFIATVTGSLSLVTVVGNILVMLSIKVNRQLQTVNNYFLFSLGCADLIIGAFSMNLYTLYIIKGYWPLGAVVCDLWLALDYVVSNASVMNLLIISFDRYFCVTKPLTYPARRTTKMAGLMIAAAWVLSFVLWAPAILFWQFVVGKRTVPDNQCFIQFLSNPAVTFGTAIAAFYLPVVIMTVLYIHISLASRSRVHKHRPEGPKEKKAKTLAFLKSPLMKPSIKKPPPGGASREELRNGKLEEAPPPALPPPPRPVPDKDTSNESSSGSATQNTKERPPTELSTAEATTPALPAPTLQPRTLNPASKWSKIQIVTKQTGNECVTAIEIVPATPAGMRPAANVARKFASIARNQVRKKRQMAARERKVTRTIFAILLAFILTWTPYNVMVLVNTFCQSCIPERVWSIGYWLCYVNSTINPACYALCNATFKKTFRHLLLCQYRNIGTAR
Kind of experiment: mAChR M4 cell-based functional calcium flux assay (rat M4/Gqi5/CHO cells). The settings on record: for Emin (rat M4): % ACh maximum at 30 μM. The protocol:
(§1) Human, rat, or mouse M4. cDNA, along with the chimeric G protein Gqi5, were transfected into Chinese hamster ovary (CHO-K1) cells purchased from the American Type Culture Collection using Lipofectamine2000. M4/Gqi5/CHO cells were grown in Ham's F-12 medium containing 10% heat-inactivated fetal bovine serum (FBS), 20 mM HEPES, 500 μg/mL G418 sulfate, and 200 μg/mL Hygromycin B.
(§2) For high throughput measurement of agonist-evoked increases in intracellular calcium, CHO-K1 cells stably expressing muscarinic receptors were plated in growth medium lacking G418 and hygromycin at 15,000 cells/20 μL/well in Greiner 384-well black-walled, tissue culture (TC)-treated, clear-bottom plates (VWR). Cells were incubated overnight at 37° C. and 5% CO2. The next day, cells were washed using an ELX 405 (BioTek) with assay buffer; the final volume was then aspirated to 20 μL. Next, 20 μL of a 2.3 μM stock of Fluo-4/acetoxymethyl ester (Invitrogen, Carlsbad, CA), prepared as a 2.3 mM stock in DMSO and mixed in a 1:1 ratio with 10% (w/v) Pluronic F-127 and diluted in assay buffer, was added to the wells and the cell plates were incubated for 50 min at 37° C. and 5% CO2. Dye was removed by washing with the ELX 405 and the final volume was aspirated to 20 μL. Compound master plates were formatted in a 10 point concentration-response curve (CRC) format (1:3 dilutions) in 100% DMSO with a starting concentration of 10 or 1 mM using a BRAVO liquid handler (Agilent). Test compound CRCs were then transferred to daughter plates (240 nL) using the Echo acoustic plate reformatter (Labcyte, Sunnyvale, CA) and then diluted into assay buffer (40 μL) to a 2× stock using a Thermo Fisher Combi (Thermo Fisher Scientific, Waltham, MA).
(§3) Calcium flux was measured using the Functional Drug Screening System (FDSS) 6000 or 7000 (Hamamatsu Corporation, Tokyo, Japan) as an increase in the fluorescent static ratio. Compounds were applied to cells (20 μL, 2×) using the automated system of the FDSS at 2 seconds into the protocol and the data were collected at 1 Hz. At 143 s, 10 μL of an EC20 concentration of the muscarinic receptor agonist acetylcholine was added (5×), followed by the addition of 12 μL of an EC80 concentration of acetylcholine at the 268 s time point (5×). Agonist activity was analyzed as a concentration-dependent increase in calcium mobilization upon compound addition. Positive allosteric modulator activity was analyzed as a concentration-dependent increase in the EC20 acetylcholine response. Antagonist activity was analyzed as a concentration-dependent decrease in the EC80 acetylcholine response; for the purposes of the tables herein, an IC50 (inhibitory concentration 50) was calculated as a concentration-dependent decrease of the response elicited by an EC80 concentration of acetylcholine. Concentration-response curves were generated using a four-parameter logistical equation in XLFit curve fitting software (IDBS, Bridgewater, NJ) for Excel (Microsoft, Redmond, WA) or Prism (GraphPad Software, Inc., San Diego, CA) or the Dotmatics software platform (Dotmatics, Bishop's Stortford, UK).
(§4) Compounds were synthesized as described above. Activity (IC50 and Emin) was determined in the mAChR M4 cell-based functional assay as described above and the data are shown in Table 2 and Table 3. The compound number corresponds to the compound numbers used in the examples and Tables 1 and 1.1.

For experiment [2], the target named is T2, Human M4 (Homo sapiens, UniProt P08173).
T2 construct: expressed in transfected cells; host or cells: CHO-K1 (ATCC), stably expressing M4 and Gqi5
T2 sequence (P08173 1-479): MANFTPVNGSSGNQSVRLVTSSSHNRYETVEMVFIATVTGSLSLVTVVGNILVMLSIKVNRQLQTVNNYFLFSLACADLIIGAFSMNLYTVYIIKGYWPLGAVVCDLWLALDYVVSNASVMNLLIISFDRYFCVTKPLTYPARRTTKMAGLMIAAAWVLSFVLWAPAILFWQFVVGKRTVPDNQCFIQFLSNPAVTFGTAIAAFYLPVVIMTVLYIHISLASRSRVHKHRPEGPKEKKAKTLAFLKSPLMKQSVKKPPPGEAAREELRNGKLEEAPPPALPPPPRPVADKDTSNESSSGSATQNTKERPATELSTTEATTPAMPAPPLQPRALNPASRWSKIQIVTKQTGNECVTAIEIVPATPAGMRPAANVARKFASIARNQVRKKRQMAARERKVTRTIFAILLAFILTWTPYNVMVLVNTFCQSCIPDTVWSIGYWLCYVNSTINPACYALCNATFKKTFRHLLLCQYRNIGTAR
Kind of experiment: mAChR M4 cell-based functional calcium flux assay (human M4/Gqi5/CHO cells). To be noted: for Emin (human M4): % ACh maximum at 30 μM; for IC50: decrease of the response to an EC80 concentration of acetylcholine. The protocol: as §1, §2, §3, §4
A general note: Calcium flux is commonly read through the fluorescence of an indicator in the cells.

The mark [3] stands for this setting: decrease of the response to an EC80 concentration of acetylcholine.

`Cc1cnn(C)c1-c1ccc(NC(=O)C2CC23CCN(CC2CC4C=CC2C4)CC3)nn1` (centres unmarked) [Compound 8, 6-(5-bicyclo[2.2.1]hept-2-enylmethyl)-N-[6-(2,4-dimethylpyrazol-3-yl)pyridazin-3-yl]-6-azaspiro[2.5]octane-2-carboxamide]: the “Emin (rat M4)” value in experiment [1] was 10.8%. Moreover, the figures for the IC50 in experiment [1] (setting [3]) and in experiment [2] were 3.64 µM and 0.928 µM, respectively. In addition, the “Emin (human M4)” value in experiment [2] came out at 65.0%.
For `CC(CN1CCC2(CC1)CC2CNc1ccc(-c2cc(F)ccc2Cl)nn1)C(C)(C)C` (centres unmarked) [Compound 12, 6-(2-chloro-5-fluoro-phenyl)-N-[[6-(2,3,3-trimethylbutyl)-6-azaspiro[2.5]octan-2-yl]methyl]pyridazin-3-amine] the same measures were 2.40%, 0.22 µM, 0.0393 µM and 2.15%.
For `CC(C)(C)CCN1CCC2(CC1)CC2CNc1ccc(-c2cc(F)ccc2Cl)nn1` (centres unmarked) [Compound 13, 6-(2-chloro-5-fluoro-phenyl)-N-[[6-(3,3-dimethylbutyl)-6-azaspiro[2.5]octan-2-yl]methyl]pyridazin-3-amine] the same measures were 2.82%, 0.117 µM, 0.0156 µM and 2.29%.
For `Fc1ccc(Cl)c(-c2ccc(NCC3CC34CCN(CC3CCCCC3)CC4)nn2)c1` (centres unmarked) [Compound 14, 6-(2-chloro-5-fluoro-phenyl)-N-[[6-(cyclohexylmethyl)-6-azaspiro[2.5]octan-2-yl]methyl]pyridazin-3-amine], in that order: 2.42%, 0.228 µM, 0.0177 µM and 1.95%.
As for `Fc1ccc(Cl)c(-c2ccc(NCC3CC34CCN(CC3CCCOC3)CC4)nn2)c1` (centres unmarked) [Compound 15, 6-(2-chloro-5-fluoro-phenyl)-N-[[6-(tetrahydropyran-3-ylmethyl)-6-azaspiro[2.5]octan-2-yl]methyl]pyridazin-3-amine], the “Emin (rat M4)” value in experiment [1] turned out to be 4.24%. In experiment [1] (setting [3]), the IC50 worked out at 0.519 µM. Moreover, in experiment [2], the “Emin (human M4)” value was 3.08% and the IC50 was determined as 0.00651 µM.
For `Fc1ccc(Cl)c(-c2ccc(NCC3CC34CCN(CC35CC6CC(CC(C6)C3)C5)CC4)nn2)c1` (centres unmarked) [Compound 16, N-[[6-(1-adamantylmethyl)-6-azaspiro[2.5]octan-2-yl]methyl]-6-(2-chloro-5-fluoro-phenyl)pyridazin-3-amine] the same measures were 3.13%, 0.496 µM, 2.44% and 0.0941 µM.
For `Fc1ccc(Cl)c(-c2ccc(NCC3CC34CCN(CC(c3ccccc3)c3ccccc3)CC4)nn2)c1` (centres unmarked) [Compound 17, 6-(2-chloro-5-fluoro-phenyl)-N-[[6-(2,2-diphenylethyl)-6-azaspiro[2.5]octan-2-yl]methyl]pyridazin-3-amine], in that order: 12.1%, 2.98 µM, 3.82% and 0.987 µM.
For `O=C(Nc1ccc(-c2cc(F)ccc2Cl)nn1)C1CC12CCN(CC1CC3C=CC1C3)CC2` (centres unmarked) [Compound 18, 6-(5-bicyclo[2.2.1]hept-2-enylmethyl)-N-[6-(2-chloro-5-fluoro-phenyl)pyridazin-3-yl]-6-azaspiro[2.5]octane-2-carboxamide], in that order: 4.72%, 3.09 µM, 3.46% and 0.87 µM.
For `CC(CN1CCC2(CC1)CC2C(=O)Nc1ccc(-c2cc(F)ccc2Cl)nn1)C(C)(C)C` (centres unmarked) [Compound 19, N-[6-(2-chloro-5-fluoro-phenyl)pyridazin-3-yl]-6-(2,3,3-trimethylbutyl)-6-azaspiro[2.5]octane-2-carboxamide], in experiment [1], the “Emin (rat M4)” value came to 34.9%. Also, the IC50 was greater than 10 µM in experiment [1] (cells printed in μM, decrease of the EC80 acetylcholine response) and 5.06 µM in experiment [2]. Also, the “Emin (human M4)” value in experiment [2] came to 6.57%.
Take `CC(C)(C)CCN1CCC2(CC1)CC2CNc1ccc(Cl)nn1` (centres unmarked) [Compound 20, 6-chloro-N-[[6-(3,3-dimethylbutyl)-6-azaspiro[2.5]octan-2-yl]methyl]pyridazin-3-amine]: the “Emin (rat M4)” value in experiment [1] is on record as 5.14%. Besides, the IC50 in experiment [1] (setting [3]) is 1.09 µM. Moreover, in experiment [2], the “Emin (human M4)” value was 3.47% and the IC50 was 0.27 µM.
For `Cc1nn(C)cc1-c1cnc(NCC2CC23CCN(CC2CC4C=CC2C4)CC3)cn1` (centres unmarked) [Compound 21, N-[[6-(5-bicyclo[2.2.1]hept-2-enylmethyl)-6-azaspiro[2.5]octan-2-yl]methyl]-5-(1,3-dimethylpyrazol-4-yl)pyrazin-2-amine] the same measures were 4.56%, 0.191 µM, 3.65% and 0.0301 µM.
For `Cc1nn(C)cc1-c1cnc(NCC2CC23CCN(CC(C)C(C)(C)C)CC3)cn1` (centres unmarked) [Compound 22, 5-(1,3-dimethylpyrazol-4-yl)-N-[[6-(2,3,3-trimethylbutyl)-6-azaspiro[2.5]octan-2-yl]methyl]pyrazin-2-amine] the same measures were 4.67%, 0.404 µM, 3.25% and 0.169 µM.
For `Cc1nn(C)cc1-c1cnc(NCC2CC23CCN(CCC(C)(C)C)CC3)cn1` (centres unmarked) [Compound 23, N-[[6-(3,3-dimethylbutyl)-6-azaspiro[2.5]octan-2-yl]methyl]-5-(1,3-dimethylpyrazol-4-yl)pyrazin-2-amine], in that order: 4.71%, 0.278 µM, 2.71% and 0.0647 µM.
`CC(C)(C)CCN1CCC2(CC1)CC2CNc1ccc(-c2ccc(F)cc2Cl)nn1` (centres unmarked) [Compound 24, 6-(2-chloro-4-fluoro-phenyl)-N-[[6-(3,3-dimethylbutyl)-6-azaspiro[2.5]octan-2-yl]methyl]pyridazin-3-amine]: in experiment [1], the “Emin (rat M4)” value is 3.19%. In addition, the concentration for half-maximal inhibition (IC50) amounted to 0.159 µM in experiment [1] (setting [3]) and 0.0428 µM in experiment [2]. Further, the “Emin (human M4)” value in experiment [2] worked out at 2.81%.
